Where “and” joins values, the source holds several entries; their conditions need not be identical. Equal values may be shown once.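 Cells were grown in 96-well plates and exposed to each compound for 48 hours at five concentrations; endpoints were interpolated linearly between bracketing concentrations, or set to the highest concentration if not reached. GI50 = concentration required for 50% inhibition of growth. At the TGI there is no net growth.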
Tested on: MDA-MB-468 breast
Assay: inhibition of tumour cell growth, NCI panel, 48 h

| SMILES | GI50 | TGI |
| --- | --- | --- |
| COc1cc(C(=O)Nc2cc(O)c(C/C=C(\C)CCC=C(C)C)c(O)c2)cc2c1O[C@]1(C)CC[C@@H](O)C(C)(C)[C@H]1C2 | 0.816 µM and 0.212 µM | 4.95 µM |
| N=C(N)c1ccc(-c2ccc(-c3ccc(Cl)c(Cl)c3)o2)nc1 | 1.82 µM | 3.56 µM |
| COc1ccc2c(c1)c(-c1nc(-c3cn(C)c4ncccc34)cs1)cn2CCCCN1CCOCC1 | 1.34 µM | 3.08 µM |
| CCNC(=O)c1ccc2c(c1)nc(-c1ccc(Cl)cc1)n2-c1cc(C(C)(C)C)[nH]n1 | 2.26 µM | 8.3 µM |
| N#C/C(=C\c1ccc([N+](=O)[O-])s1)c1nc2cc(Br)ccc2s1 | 1.89 µM | 5.42 µM |
| COc1cccc2cc(-c3nc(C4CCC(C(=O)O)CC4)n4ncnc(N)c34)[nH]c12 (configuration not stated) | 0.185 µM and 0.257 µM | 1.09 µM and 3 µM |
| OCCN1CCN(c2nc(Nc3ccc(-c4nc5ccccc5[nH]4)cc3)c3cn[nH]c3n2)CC1 | 1.69 µM | 3.23 µM |
| CC(=O)OC1CC(C)c2c(Cl)ncnc21 (configuration not stated) | > 100 µM | > 100 µM |
| Cc1cccc2c1NC(=O)C2(c1ccc(O)cc1)c1ccc(O)cc1 | < 0.0181 µM | 4.24 µM |
| CC(=O)OC[C@@]12Oc3c(cccc3-c3ccc(O)c4c3O[C@]3(COC(C)=O)C(=C4O)C(=O)C[C@H](C)[C@@H]3OC(C)=O)C(O)=C1C(=O)C[C@H](C)[C@@H]2OC(C)=O | 15.1 µM | 48.7 µM |
| CCCCC/C=C\C/C=C/CCCCCCCCNC(=O)Nc1ccc([N+](=O)[O-])cc1 | 7.63 µM | 73 µM |
| CCc1cccc(CC)c1NC(=O)c1ccn2c1CCc1cnc(Nc3ccc(N4CCN(C)CC4)cc3OC)nc1-2 | 2.1 µM | 5.91 µM |
| COc1ccc(C(=O)c2cc(OC)c(OC)c(OC)c2)cc1/C=C/C(=O)c1ccc2c(c1)OCO2 | 1.44 µM | 4.06 µM |
| Cc1nc2sc(C(=O)Nc3cccc(Cl)c3C)c(N)c2cc1C(=O)c1ccccc1 | 0.126 µM | 0.889 µM |
| O=C(Nc1ccc(Cl)cc1F)c1cc(Cl)ccc1O | 0.429 µM | 3.96 µM |
| CC#CC(=O)N[C@H]1CCCN(c2c(F)cc(C(N)=O)c3[nH]c(C)c(C)c23)C1 | 11.8 µM | 27 µM |
| CN1CCN(CCCOc2ccc3nc(Nc4ccc(C(F)(F)F)c(Cl)c4)ccc3c2)CC1 | 1.54 µM | 3.16 µM |
| Cc1csc(-c2ccc3c(c2)COC3(CCCN(C)C)c2ccc(F)cc2)c1 (configuration not stated) | 1.7 µM | 3.38 µM |
| CNC(=O)c1c(NC(=O)c2ccc(C(C)C)cc2)sc2c1CCC(=O)C2 | 0.45 µM | 2.33 µM |
| CC(C)NCCCCCNc1cc(O)cc2cccnc12 | 2.29 µM | 6.2 µM |
| O=c1cc(-c2ccccc2)nc2cc(-c3ccco3)[nH]n12 | 2.89 µM | 59.5 µM |

Reference: PubChem BioAssay (NCI)
